Measured values taken from PMC7801683 (2021).

What was measured:
[1] = test system: SCA31 hpRNA (RNA, hairpin) GUACUGGAACAUGUUUCAUGUGGAAGUAC; assay: ESI-TOF MS; settings: 100 mM ammonium acetate; 50% methanol; 10 µM RNA, 40 µM compound
[2] = test system: r(UAAAA)9 (RNA, repeat) UAAAAUAAAAUAAAAUAAAAUAAAAUAAAAUAAAAUAAAAUAAAA; assay: UV melting; settings: 100 mM NaCl; 10 mM sodium cacodylate pH 7.0; 20 µM compound, 2 µM RNA
[3] = test system: GGA/GGA internal loop RNA duplex (UGGAA/UGGAA pentad) (RNA, mismatch bulge abasic) GUACUGGAACAUG/CAUGUGGAAGUAC; assay: UV melting; settings: 100 mM NaCl; 10 mM sodium cacodylate pH 7.0; 20 µM compound, 4 µM RNA
[4] = test system: r(UGGAA)9 (RNA, repeat) UGGAAUGGAAUGGAAUGGAAUGGAAUGGAAUGGAAUGGAAUGGAA; assay: EMSA; settings: 100 mM NaCl; 10 mM sodium cacodylate pH 7.0, room temperature; 2 µM compound
[5] = test system: GGA/AGA internal loop RNA duplex (RNA, mismatch bulge abasic) GUACUGGAACAUG/CAUGUAGAAGUAC; assay: UV melting; settings: 100 mM NaCl; 10 mM sodium cacodylate pH 7.0; 20 µM compound, 4 µM RNA
[6] = test system: SCA31 hpRNA (RNA, hairpin) GUACUGGAACAUGUUUCAUGUGGAAGUAC; assay: ITC; settings: 100 mM NaCl; 10 mM sodium cacodylate pH 7.0, 25 °C; apparent; single set of identical sites
[7] = test system: r(UGGAA)9 (RNA, repeat) UGGAAUGGAAUGGAAUGGAAUGGAAUGGAAUGGAAUGGAAUGGAA; assay: UV melting; settings: 100 mM NaCl; 10 mM sodium cacodylate pH 7.0; 20 µM compound, 2 µM RNA; Tm 73.7 °C with NCD, none without
[8] = test system: 5'-biotin-TEG r(UGGAA)9 (RNA, repeat) UGGAAUGGAAUGGAAUGGAAUGGAAUGGAAUGGAAUGGAAUGGAA; assay: SPR; settings: 150 mM NaCl; 10 mM HEPES pH 7.4, 3 mM EDTA, 0.05% P20; 500 nM compound
[9] = test system: SCA31 hpRNA (RNA, hairpin) GUACUGGAACAUGUUUCAUGUGGAAGUAC; assay: NMR solution structure; settings: 100 mM NaCl; 20 mM sodium phosphate pH 6.9, 288 K

Question: Cc1ccc2ccc(NC(=O)OCCCNCCCOC(=O)Nc3ccc4ccc(C)nc4n3)nc2n1 was tested. Which binding [1] did it give?
Answer: yes

Question: And the binding [2]?
Answer: no

Question: And the Tm [3]?
Answer: 21.5 °C

Question: And the binding [4]?
Answer: yes

Question: And the ΔTm [5]?
Answer: 5.2 °C

Question: What about the “Kd(app)” value [6] of the same molecule?
Answer: 32 nM

Question: And the binding [7]?
Answer: yes

Question: And the binding [8]?
Answer: yes

Question: What about the binding [9] of the same molecule?
Answer: yes
